test system: HCC1937; experiment: normalised response (% of control), CellTox Green; higher = less cell death (100 = DMSO, 0 = benzethonium chloride kill control); conditions: incubation time: 72 h
Method in brief: (§1)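 For each plate, 0.1 % DMSO was set to 100 and a positive kill control to 0. Breast cancer cell lines (20 µl suspension) were seeded into 384-well plates already holding compound at 5 concentrations in 10-fold steps over a 10,000-fold range chosen per compound, and incubated for 72 h. CellTox Green fluorescence at 485/520 nm was read before CellTiter-Glo luminescence, which followed 10 min at room temperature. Each value is the normalised signal at one concentration.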

Compound | normalised response [%]
CC(C)(C)Cn1c(N)nc2ccc(-c3[nH]c(C(C)(C)C)nc3-c3ccc(F)cc3)nc21 (10000 nM) | 92.4
Cn1cc(C[C@@H](N)C(=O)O)c2ccccc21 [1-methyl-D-tryptophan] (5000 nM) | 106
CC[C@H](CC#N)OC(=O)N[C@@H](C)c1cccc(NC(=O)Nc2ccc(-c3cnco3)c(OC)c2)c1 [AVN944] (10000 nM) | 96.6
CCc1cnn2c(NCc3ccc[n+]([O-])c3)cc(N3CCCC[C@H]3CCO)nc12 [Dinaciclib] (1000 nM) | 83.6
Cc1c(C(=O)Nc2ccc(N3C[C@@H](C)O[C@@H](C)C3)nc2)cccc1-c1ccc(OC(F)(F)F)cc1 [Erismodegib] (10000 nM) | 122
COc1cc(Nc2ncc(F)c(Nc3ccc4c(n3)N(COP(=O)(O)O)C(=O)C(C)(C)O4)n2)cc(OC)c1OC [Fostamatinib] (2500 nM) | 74.1
CC(C)NC[C@@H](C(=O)N1CCN(c2ncnc3c2[C@H](C)C[C@H]3O)CC1)c1ccc(Cl)cc1 [GDC-0068] (10000 nM) | 97.5
CCCc1cc(C)[nH]c(=O)c1CNC(=O)c1cc(-c2ccnc(N3CCN(C)CC3)c2)cc2c1cnn2C(C)C [GSK343] (10000 nM) | 101

test system: CAL-51; experiment: as above; conditions: incubation time: 72 h
Method in brief: as §1

Compound | normalised response [%]
CC(C)(C)Cn1c(N)nc2ccc(-c3[nH]c(C(C)(C)C)nc3-c3ccc(F)cc3)nc21 (10000 nM) | 104
Cn1cc(C[C@@H](N)C(=O)O)c2ccccc21 [1-methyl-D-tryptophan] (5000 nM) | 102
CC[C@H](CC#N)OC(=O)N[C@@H](C)c1cccc(NC(=O)Nc2ccc(-c3cnco3)c(OC)c2)c1 [AVN944] (10000 nM) | 78.9
CCc1cnn2c(NCc3ccc[n+]([O-])c3)cc(N3CCCC[C@H]3CCO)nc12 [Dinaciclib] (1000 nM) | 71.8
Cc1c(C(=O)Nc2ccc(N3C[C@@H](C)O[C@@H](C)C3)nc2)cccc1-c1ccc(OC(F)(F)F)cc1 [Erismodegib] (10000 nM) | 99.8
COc1cc(Nc2ncc(F)c(Nc3ccc4c(n3)N(COP(=O)(O)O)C(=O)C(C)(C)O4)n2)cc(OC)c1OC [Fostamatinib] (2500 nM) | 31.6
CC(C)NC[C@@H](C(=O)N1CCN(c2ncnc3c2[C@H](C)C[C@H]3O)CC1)c1ccc(Cl)cc1 [GDC-0068] (10000 nM) | 77.1
CCCc1cc(C)[nH]c(=O)c1CNC(=O)c1cc(-c2ccnc(N3CCN(C)CC3)c2)cc2c1cnn2C(C)C [GSK343] (10000 nM) | 106

test system: MDA-MB-231; experiment: as above; conditions: incubation time: 72 h
Method in brief: as §1

Compound | normalised response [%]
CC(C)(C)Cn1c(N)nc2ccc(-c3[nH]c(C(C)(C)C)nc3-c3ccc(F)cc3)nc21 (10000 nM) | 47.1
Cn1cc(C[C@@H](N)C(=O)O)c2ccccc21 [1-methyl-D-tryptophan] (5000 nM) | 99.5
CC[C@H](CC#N)OC(=O)N[C@@H](C)c1cccc(NC(=O)Nc2ccc(-c3cnco3)c(OC)c2)c1 [AVN944] (10000 nM) | 110
CCc1cnn2c(NCc3ccc[n+]([O-])c3)cc(N3CCCC[C@H]3CCO)nc12 [Dinaciclib] (1000 nM) | -18.6
Cc1c(C(=O)Nc2ccc(N3C[C@@H](C)O[C@@H](C)C3)nc2)cccc1-c1ccc(OC(F)(F)F)cc1 [Erismodegib] (10000 nM) | 107
COc1cc(Nc2ncc(F)c(Nc3ccc4c(n3)N(COP(=O)(O)O)C(=O)C(C)(C)O4)n2)cc(OC)c1OC [Fostamatinib] (2500 nM) | -11.9
CC(C)NC[C@@H](C(=O)N1CCN(c2ncnc3c2[C@H](C)C[C@H]3O)CC1)c1ccc(Cl)cc1 [GDC-0068] (10000 nM) | 124
CCCc1cc(C)[nH]c(=O)c1CNC(=O)c1cc(-c2ccnc(N3CCN(C)CC3)c2)cc2c1cnn2C(C)C [GSK343] (10000 nM) | -68.4

test system: MCF-10A; experiment: as above; conditions: incubation time: 72 h
Method in brief: as §1

Compound | normalised response [%]
CC(C)(C)Cn1c(N)nc2ccc(-c3[nH]c(C(C)(C)C)nc3-c3ccc(F)cc3)nc21 (10000 nM) | 89.3
Cn1cc(C[C@@H](N)C(=O)O)c2ccccc21 [1-methyl-D-tryptophan] (5000 nM) | 90.3
CC[C@H](CC#N)OC(=O)N[C@@H](C)c1cccc(NC(=O)Nc2ccc(-c3cnco3)c(OC)c2)c1 [AVN944] (10000 nM) | 85.2
CCc1cnn2c(NCc3ccc[n+]([O-])c3)cc(N3CCCC[C@H]3CCO)nc12 [Dinaciclib] (1000 nM) | 47.1
Cc1c(C(=O)Nc2ccc(N3C[C@@H](C)O[C@@H](C)C3)nc2)cccc1-c1ccc(OC(F)(F)F)cc1 [Erismodegib] (10000 nM) | 101
COc1cc(Nc2ncc(F)c(Nc3ccc4c(n3)N(COP(=O)(O)O)C(=O)C(C)(C)O4)n2)cc(OC)c1OC [Fostamatinib] (2500 nM) | 69
CC(C)NC[C@@H](C(=O)N1CCN(c2ncnc3c2[C@H](C)C[C@H]3O)CC1)c1ccc(Cl)cc1 [GDC-0068] (10000 nM) | 101
CCCc1cc(C)[nH]c(=O)c1CNC(=O)c1cc(-c2ccnc(N3CCN(C)CC3)c2)cc2c1cnn2C(C)C [GSK343] (10000 nM) | 90.1

test system: BT-549; experiment: normalised response (% of control), CellTiter-Glo; higher = more viable cells (100 = DMSO, 0 = benzethonium chloride kill control); conditions: incubation time: 72 h
Description: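 DSRT, 72 h incubation, CellTox Green / CellTiter-Glo readout. Signal is normalised to DMSO and benzethonium chloride controls. Value is the normalised response at the highest dose.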

Compound | normalised response [%]
CC(C)(C)Cn1c(N)nc2ccc(-c3[nH]c(C(C)(C)C)nc3-c3ccc(F)cc3)nc21 (10000 nM) | 76.4
Cn1cc(C[C@@H](N)C(=O)O)c2ccccc21 [1-methyl-D-tryptophan] (5000 nM) | 97.8
CC[C@H](CC#N)OC(=O)N[C@@H](C)c1cccc(NC(=O)Nc2ccc(-c3cnco3)c(OC)c2)c1 [AVN944] (10000 nM) | 27
CCc1cnn2c(NCc3ccc[n+]([O-])c3)cc(N3CCCC[C@H]3CCO)nc12 [Dinaciclib] (1000 nM) | 14
Cc1c(C(=O)Nc2ccc(N3C[C@@H](C)O[C@@H](C)C3)nc2)cccc1-c1ccc(OC(F)(F)F)cc1 [Erismodegib] (10000 nM) | 81.8
